The values that follow come from patent US20230357134A1, “AGENTS FOR USE IN THE TREATMENT OF AMYLOIDOSIS” (UCL BUSINESS LTD, priority 2020, published 2023).

For one data set, the target named is T1, isolated wild type TTR (Homo sapiens, UniProt P02766).
T1 construct: the non-covalently associated protomers, of mass 13,761, each contain 127 residues; His6 (N); TEV cleavage site (N); made in house; host or cells: E. coli BL21 (DE3)
Description: Displacement of 125I-T4 from isolated wild type TTR in buffer. The conditions noted are these: concentration of ligand reducing binding of 125I-T4 by TTR by 50%; 125 nM TTR, pH 8.0, overnight 4° C.; mean of at least 3 replicates; read-out: D50 buffer. Here is the method: 3. Evaluation of Ligand Activity Based on Capacity to Displace ^125I-Thyroxine (T4) from TTR in Buffer/Human Plasma 3.1 Displacement of ^125I-T4 from Isolated Wild Type TR.
Competition of ligands with T4 for binding by TTR was assayed quantitatively by a previously described procedure (Kolstoe et al., 2010). Briefly, a solution of 125 nM TTR in 0.1 M Tris-HCl, 0.1 M NaCl and 0.001 M EDTA buffer, pH 8.0, was incubated overnight at 4° C. in the presence of 1.07 nM ^125I T4 (1,200 μCi/μg, 200 μCi/ml, Perkin Elmer) and increasing concentrations of inhibitor (0-5 μM) in 40 μl final volume. ^125I T4 bound by TTR was separated from unbound T4 by gel filtration chromatography using Micro Bio Spin 6 columns (Bio-Rad) previously equilibrated with the reaction buffer containing 1% w/v BSA. After counting with a Wizard2 gamma counter (Perkin-Elmer) for 60 s, percentage binding was plotted against the logarithm of the inhibitor concentration, and D50 (concentration of ligand reducing the binding of T4 by TTR by 50%) was determined using a four parameters dose-response curve with GraphPad Prism 5 (Table 1).

Data set [1] concerns the target T2, TTR in whole human plasma (Homo sapiens, UniProt P02766).
T2 construct: TTR in whole plasma, from individuals homozygous for wild type TTR; from tissue; host or cells: whole human plasma
Description: Displacement of 125I-T4 from TTR in normal human plasma. Type of data set: binding. To be noted: wild type TTR, 30 min 37° C. with ligand, immunoprecipitation, mean of at least 3 replicates, read-out: D50 plasma. Here is the method:
3.2 Displacement of ^125-T4 from TTR in Normal Human Plasma.
The displacement of ^125I-T4 from TTR in whole plasma, from individuals homozygous for wild type TTR, was studied by incubating plasma with each ligand at increasing concentrations for 30 min at 37° C., further incubation with […] followed by measurement of the radioactivity in the immunoprecipitate obtained with anti-TTR antibodies. […] Percentage binding was plotted against the logarithm of the inhibitor concentration, and D50 (concentration of ligand reducing the binding of T4 by TTR by 50%) was determined using a four parameter dose-response curve with GraphPad Prism 5 (Table 1).

Data set [2] deals with T3, recombinant Val122Ile TTR (Homo sapiens, UniProt P02766, V142I).
T3 construct: the non-covalently associated protomers, of mass 13,761, each contain 127 residues; His6 (N); TEV cleavage site (N); made in house; host or cells: E. coli BL21 (DE3)
Description: Mechano-enzymatic fibrillogenesis, TTR aggregation by turbidity at 400 nm. Type of data set: biochemical. The conditions noted are these: equimolar ligand, Val122Ile TTR 9 μM, trypsin, 96 h; 100 % = protein without ligand; mean (SD). On the procedure: (§1) Briefly, fibrillogenesis of recombinant Val122Ile TTR at 0.5 mg/ml (9 μM) in PBS, pH 7.4 was carried out in glass vials stirred at 1,400 rpm (IKA magnetic stirrer) and 37° C. in the presence and in the absence of trypsin (5 ng/μl). […] Each ligand was tested at 4 different concentrations (4.5, 9, 18, 36 μM respectively) corresponding to the following drug/TTR molar ratios of 0.5:1, 1:1, 2:1 and 4:1. Several dilutions of the drug stock solutions were made in order to add the same volume of DMSO to each sample. Control samples without drug were added with the same volume of DMSO only. To allow complete binding of ligand by TTR each sample was incubated for 30 min at 37° C. before addition of trypsin. Spectrophotometric turbidity at 400 nm was used to monitor fibril formation over time until it reached a plateau at 96 h. Aggregation of TTR in the presence of equimolar ligand concentrations was quantified as spectrophotometric turbidity at 400 nm as a proportion of 100% for aggregation of the protein in the absence of ligands (Table 2).

The target of data set [3] is T3, recombinant Val122Ile TTR. Description: Mechano-enzymatic fibrillogenesis, TTR amyloid by ThT emission fluorescence. Format: biochemical. The conditions noted are these: equimolar ligand, 96 h pellets, normalized to 100 % without ligand, mean (SD). Here is the method:
as §1
At the end of the 96 h aggregation, pellets were harvested from each protein sample by 20 min centrifugation at 11,600 g, thoroughly rinsed with PBS to remove non-bound ligand, resuspended with 100 μl PBS, pH 7.4 containing 10 μM ThT in Costar 96-well black-wall plates. Bottom fluorescence values (excitation 440 nm, emission 480 nm) were recorded using a BMG LABTECH FLUostar Omega plate reader. Each value was normalized to the ThT signal of the TTR sample without ligand (Table 2)

Data set [4] in a line: Rat oral pharmacokinetics. The conditions noted are these: in vivo, 5 mg/kg, 5 mpk.
The nature of another data set: Rat IV pharmacokinetics. To be noted: in vivo, 1 mg/kg, 1 mpk, read-out: Rat IV PK t½ (converted).
In data set [5] the target is T4, native recombinant wild type TTR (Homo sapiens, UniProt P02766).
T4 construct: the non-covalently associated protomers, of mass 13,761, each contain 127 residues; His6 (N); TEV cleavage site (N); made in house; host or cells: E. coli BL21 (DE3)
Briefly: Kinetics of ligand binding by TTR (stopped flow quenching of intrinsic fluorescence). The conditions noted are these: for T 1/2: TTR 1 μM with equimolar ligand, 37° C., PBS pH 7.4, t½ = ln 2/k. On the procedure: Ligand binding by native TTR quenches the intrinsic fluorescence of the protein. After mixing of ligands with TTR in solution, monitoring emission of the intrinsic fluorescence over time defines the rate at which the ligand is bound by the protein. The fast phase of these binding kinetics was characterized using an SFM 3000 stopped flow device coupled to a MOS500 spectrometer with a fluorescence detection system (Bio Logic, Claix, France) and a cell path length of 1.5 mm. TTR and ligands at 37° C. were mixed at final concentrations of 1 μM each in PBS pH 7.4 containing 0.9% v/v DMSO, and were excited at 280 nm for measurement of total fluorescence emission over 325 nm using a cut off filter. Kinetic data were acquired as the average of at least 3 experimental mixings and fitted to a first order reaction using the general formula y(t)=at +b+C exp (−kt), where y(t) is the observed fluorescence, a (slope) and b (offset) corresponding to the baseline. C and k are, respectively, amplitude and rate constant of the observed fluorescence change. Data were analysed using the Biokine software and values of half-life time (t½) correspond to ln 2/k. (Table 3).

The target of another data set is T5, (2H, 13C, 15N) TTR (Homo sapiens, UniProt P02766).
T5 construct: the non-covalently associated protomers, of mass 13,761, each contain 127 residues; His6 (N); TEV cleavage site (N); made in house; host or cells: E. coli BL21 (DE3)
Briefly: 2D NMR [1H,15N] TROSY of TTR-ligand complexes. Format: binding. To be noted: equimolar ligand, 90 μM TTR, PBS pH 7.4, 310K. Here is the method:
Using the same methodology as in Corazza 2019, we have studied the effect of equimolar addition of T304 or B23 to a sample of 90 μM (^2H, ^13C,^15N) TTR in PBS buffer, pH 7.4. 2D NMR [^1H,[…]] TROSY spectra were acquired with a Bruker AVANCE 800 MHz Spectrometer at 310K. After the addition of T304 or B23 to TTR some of the amide peaks of the apo form vanish and new peaks of the holo species appear indicating the binding of T304 or B23 by TTR. The changes occur for specific TTR residues where the protein senses the chemical effect of the ligands or where the ligands induce structural changes in the protein. […] Analysis of the chemical shift perturbations in the holo TTR structure confirms the involvement of the halogen binding pocket in the binding but also highlights an effect that is well beyond the ligand binding site, involving the outer helix and the outer beta strands.

For data set [6] the following is noted: background statement; cited from earlier work.

Broadly, the Cmax is the maximum level reached in the sampled fluid or tissue. `O=C(O)CCc1cc(Cl)c(OCCCOCCOc2c(Cl)cc(Nc3ccnnc3C(=O)O)cc2Cl)c(Cl)c1` [Compound B25, 4-[4-[2-[3-[4-(2-carboxyethyl)-2,6-dichloro-phenoxy]propoxy]ethoxy]-3,5-dichloro-anilino]pyridazine-3-carboxylic acid]: the IC50 was 70 nM on isolated wild type TTR and 3200 nM in [1]. Also, the “% Aggregation (Turbidity method)” value in [2] was 3.96 (1.04) %. For the same compound, the “% Aggregation (Fluorescence method)” value in data set [3] is given as 8.96 (7.24) %. In addition, the Cmax in data set [4] was 217 ng/mL. Besides, the half-life in the data set “Rat IV pharmacokinetics” is 6.97 h.

As for `O=C(O)CCc1cc(Cl)c(OCCCOCCOc2c(Cl)cc(Nc3ccncc3C(=O)O)cc2Cl)c(Cl)c1` [Compound B27, 4-[4-[2-[3-[4-(2-carboxyethyl)-2,6-dichloro-phenoxy]propoxy]ethoxy]-3,5-dichloro-anilino]pyridine-3-carboxylic acid], the IC50 on isolated wild type TTR was found to be 100 nM; in data set [1] it was 2200 nM. In data set [2], the “% Aggregation (Turbidity method)” value is recorded as 4.24 (1.96) %. The “% Aggregation (Fluorescence method)” value in data set [3] is 12.0 (1.06) %. Moreover, in data set [5], the “T 1/2” value was determined as 0.866 s. Moreover, the Cmax in data set [4] was determined as 316 ng/mL. In “Rat IV pharmacokinetics”, the half-life is 5.34 h.

Consider `CCc1oc(-c2cc(Cl)c(OCC[C@@H](O)[C@H](O)CCOc3c(Cl)cc(CCC(=O)O)cc3Cl)c(Cl)c2)nc1C(=O)O` [Compound B23, 2-[4-[(3R,4R)-6-[4-(2-carboxyethyl)-2,6-dichloro-phenoxy]-3,4-dihydroxy-hexoxy]-3,5-dichloro-phenyl]-5-ethyl-oxazole-4-carboxylic acid], for which the IC50 at isolated wild type TTR was found to be 110 nM; in [1], 9800 nM. In addition, the “% Aggregation (Turbidity method)” value in data set [2] was 4.41 (1.99) %. Besides, the “% Aggregation (Fluorescence method)” value in data set [3] was 12.6 (4.42) %. In addition, the “T 1/2” value in data set [5] is 1.216 s. In [4], this compound showed a Cmax of 2580 ng/mL. For the same compound, the half-life in “Rat IV pharmacokinetics” is 5.11 h. Further, the “binding mode by NMR chemical shift changes” value at (2H, 13C, 15N) TTR was “occupancy of both binding sites”.

Consider `O=C(O)CCc1cc(Cl)c(OCCCOCCOc2c(Cl)cc(Nc3cnccc3C(=O)O)cc2Cl)c(Cl)c1` [Compound B26, 3-[4-[2-[3-[4-(2-carboxyethyl)-2,6-dichloro-phenoxy]propoxy]ethoxy]-3,5-dichloro-anilino]pyridine-4-carboxylic acid], for which the IC50 at isolated wild type TTR came to 90 nM; in data set [1], 1400 nM. In addition, in data set [2], the “% Aggregation (Turbidity method)” value is recorded as 3.93 (1.73) %. The “% Aggregation (Fluorescence method)” value in data set [3] was 4.62 (2.37) %. The compound further displayed a peak concentration (Cmax) in data set [4] of 1450 ng/mL. Also, in the data set “Rat IV pharmacokinetics”, the half-life was 5.5 h.

On to `O=C(O)c1ccccc1Nc1cc(Cl)c(OCCCCCCCOc2c(Cl)cc(Nc3ccccc3C(=O)O)cc2Cl)c(Cl)c1` [mds84, reference compound], for which, in data set [5] (TTR and ligand 1 μM each), the “rate constant k of ligand-induced quenching reaction” value stood at 0.202 s⁻¹. Further, the burst phase amplitude in [5] (millisecond time scale, fluorescence quenching) stood at 8%. Further, in [6], the “bioavailability for an oral drug” value is “very poor” and the half-life in vivo result is “short”.
